These results are taken from publication PMC3023143 (Nature, 2011).

One test deals with β1AR-m23. Description: Ligand efficacy at β1AR-m23. The class given is cell-based, turkey (Meleagris gallopavo). As to conditions: β1AR-m23, Supplementary Table 3.
The next test has as its system human β1AR. As to conditions: no reference given; cited from earlier work.

In the case of `CC(CCc1ccc(O)cc1)NCCc1ccc(O)c(O)c1` (centres unmarked) [Dobutamine, dobutamine], the ligand efficacy class result in the test on β1AR-m23 and in the test on human β1AR was “partial agonists” throughout.
